Values joined by “and” are separate entries in the source; they are usually repeats but may differ in a detail not shown here. Equal entries are not always repeated. Where two headings read alike, the source gives them in different places.
Tests used:
R163C mice = type: in vivo, mouse
[1] = tested on: FDB muscle cells from R2509C mice; assay: Mn2+ quench of fura-2 fluorescence in isolated FDB cells from R2509C mice; type: cell-based, mouse; details: 0.1 μM
Method: WT and mutant mice (R2509C, 8- to 20-week old; R163C, 12- to 16-week old, and G2435R, 12- to 16-week old) were euthanized and flexor digitorum brevis (FDB) muscles were dissected and incubated with 2 mg/mL collagenase (Worthington Biochemical Co., NJ, USA) in the HEPES-Krebs solution containing 2 mg/mL bovine serum albumin for 2–3 h at 37 °C. Following incubation, single cells were separated by gentle trituration in collagenase-free HEPES-Krebs solution. Isolated single FDB cells were seeded on a laminin-coated cover slip of the 35 mm glass-bottom dish or on 96 well plate coated with Cultrex basement membrane matrix (Trevigen, Minneapolis, USA).
Isolated single FDB cells were incubated with 4 µM Cal520-AM (AAT Bioquest, CA, USA) or fura-2-AM (Thermo Fisher Scientific) dye in the HEPES-Krebs solution (140 mM NaCl, 5 mM KCl, 2 mM CaCl2, 1 mM MgCl2, 11 mM glucose, 5 mM HEPES, pH 7.4) for 30 min at 37 °C. The cells were then washed three times with the HEPES-Krebs solution to remove excess dye, and after 30 min of de-esterification, fluorescence images were obtained with a 20X (NA = 0.75) objective lens of an inverted microscope (Nikon TE2000-E Japan) equipped with the sCMOS camera (Zyla, Andor, Belfast, Northern Ireland) using Metamorph v7 (Molecular Devices). Cal520 was excited at 480 ± 15 nm, and fluorescence was measured at wavelengths of 525 ± 25 nm. […]

[2] = Pharmacokinetics after i.p. administration in mice; type: in vivo, mouse; set-up: Cpd1 concentration (sheet Fig S5a) / Cpd1 concentration (sheet Fig S5b): unit not given here; details: for concentration at 10 min / concentration at 30 min / concentration at 60 min / Cmax / half-life / concentration at 5 min: C57BL/6J, mouse, plasma; for concentration at 10 min / concentration at 30 min / concentration at 60 min / concentration at 5 min: intraperitoneal; for Cmax / half-life: ip; for Cpd1 concentration (sheet Fig S5b) / Cpd1 concentration (sheet Fig S5a): i.p., single mice
Method: Cpd1 sodium salt (3 mg/kg and 10 mg/kg) dissolved in normal saline was administered i.p. to WT C57BL/6 J mice (10 week-old). Serial tail bled blood samples (∼20 μL) were collected using heparinized tip at 5, 10, 30, and 60 min after administration. Aliquots (5 μL) of plasma samples obtained from each blood were treated with 50 μL of acetonitrile and organic layer were injected onto LC–MS/MS system (Waters Corp., Milford, MA, USA). The pharmacokinetic parameters included maximum concentration (Cmax), elimination half-life (T½).

WT mice = assay: Muscle force in vivo, grip force test (4-grips test), WT mice; set-up: species or system mouse; details: for grip force (sheet Fig S6b): single mice; for grip force normalized by body weight: 8-times injection of 1 mg/kg at 10 min intervals, 1 mg/kg
[3] = Metabolic stability in mouse liver microsomes; type: in vitro ADME; details: 0.5 μM, NADPH
Method: Cpd1 (final concentration was 0.5 μM) was incubated with human or mouse hepatic microsomes (XenoTech Ltd, Kansas City, KS) with nicotinamide adenine dinucleotide phosphate (NADPH) for 10 and 60 min at 37 °C. Each reaction was stopped by acetonitrile, and the value of unchanged compound 1 was determined by quantitating using LC–MS/MS, and the metabolic stability was evaluated as a remaining rate (%).

CCCCCCCCn1cc(C(=O)O)c(=O)c2cc3c(cc21)OCO3 [Cpd1, 6,7-(methylenedioxy)-1-octyl-4-quinolone-3-carboxylic acid]
survival curve status code of one mouse after isoflurane anesthesia (code not defined) (R163C mice; 2.5 mg/kg, at 11 minutes): 1
survival curve status code of one mouse after isoflurane anesthesia (code not defined) (R163C mice; 2.5 mg/kg, at 12 minutes): 1
survival curve status code of one mouse after isoflurane anesthesia (code not defined) (R163C mice; 2.5 mg/kg, at 13 minutes): 1
survival curve status code of one mouse after isoflurane anesthesia (code not defined) (R163C mice; 2.5 mg/kg, at 14 minutes): 1
survival curve status code of one mouse after isoflurane anesthesia (code not defined) (R163C mice; 5 mg/kg, at 12 minutes): 1
survival curve status code of one mouse after isoflurane anesthesia (code not defined) (R163C mice; 5 mg/kg, at 15 minutes): 1
survival curve status code of one mouse after isoflurane anesthesia (code not defined) (R163C mice; 5 mg/kg, at 30 minutes): 0
rescue effect on [Ca2+]i during MH crisis (R163C mice; 10 mg/kg 15 min after induction of isoflurane anesthesia): rapidly decreased [Ca^2+]i to the levels measured in WT muscle
survival curve status code of one mouse after isoflurane anesthesia (code not defined) (R163C mice; 10 mg/kg, at 30 minutes): 0
effect on MH episode and death under isoflurane (R163C mice; pretreatment at doses of 5 and 10 mg/kg): effectively prevented the MH episode and death
effect on rate of Mn2+ quench [1]: no effect
plasma concentration ([2]; 3 mg/kg i.p., 10 min): 750 ng/mL and 510 ng/mL and 710 ng/mL and 660 ng/mL and 760 ng/mL
plasma concentration ([2]; 3 mg/kg i.p., 30 min): 150 ng/mL and 120 ng/mL and 140 ng/mL and 190 ng/mL
plasma concentration ([2]; 10 mg/kg i.p., 10 min): 2950 ng/mL and 3200 ng/mL and 1730 ng/mL and 2280 ng/mL and 1660 ng/mL
plasma concentration ([2]; 10 mg/kg i.p., 60 min): 50 ng/mL and 60 ng/mL
concentration at 10 min ([2]; 3 mg/kg, 3 mg/kg i.p., 10 min): 440 ng/mL
concentration at 30 min ([2]; 3 mg/kg, 3 mg/kg i.p., 30 min): 110 ng/mL
concentration at 10 min ([2]; 10 mg/kg, 10 mg/kg i.p., 10 min): 3080 ng/mL
concentration at 60 min ([2]; 10 mg/kg, 10 mg/kg i.p., 60 min): 40 ng/mL
Cmax ([2]; 3 mg/kg i.p.): 1500 ± 200 ng/mL
half-life ([2]; 3 mg/kg i.p., read-out: t1/2): 8.4 ± 1.4 min
Cmax ([2]; 10 mg/kg i.p.): 5400 ± 600 ng/mL
half-life ([2]; 10 mg/kg i.p., read-out: t1/2): 8.6 ± 1.6 min
half-life ([2]; both the 3 mg/kg and 10 mg/kg dose i.p., read-out: t1/2 (plasma half-life)): ~8 min
Cmax ([2]; female mice, 3 mg/kg i.p.): 1600 ± 100 ng/mL
half-life ([2]; female mice, 3 mg/kg i.p., read-out: t1/2): 8.6 ± 0.8 min
Cmax ([2]; female mice, 10 mg/kg i.p.): 6000 ± 400 ng/mL
half-life ([2]; female mice, 10 mg/kg i.p., read-out: t1/2): 9.3 ± 1 min
Cmax ([2]; female, 8-times injection of 1 mg/kg at 10 min intervals): 150 ± 110 ng/mL
half-life ([2]; female, 8-times injection of 1 mg/kg at 10 min intervals, read-out: t1/2): 14.8 ± 2.1 min
Cmax ([2]; male mice, 3 mg/kg i.p.): 1300 ± 400 ng/mL
half-life ([2]; male mice, 3 mg/kg i.p., read-out: t1/2): 8.3 ± 2.7 min
Cmax ([2]; male mice, 10 mg/kg i.p.): 5100 ± 1200 ng/mL
half-life ([2]; male mice, 10 mg/kg i.p., read-out: t1/2): 7.4 ± 2.5 min
Cmax ([2]; male, 8-times injection of 1 mg/kg at 10 min intervals): 670 ± 110 ng/mL
half-life ([2]; male, 8-times injection of 1 mg/kg at 10 min intervals, read-out: t1/2): 9.6 ± 2.7 min
plasma concentration ([2]; female, 8-times injection of 1 mg/kg at 10 min intervals, 5 min, 1 mg/kg): 110 ng/mL and 120 ng/mL
plasma concentration ([2]; female, 8-times injection of 1 mg/kg at 10 min intervals, 30 min, 1 mg/kg): 30 ng/mL
plasma concentration ([2]; female, 8-times injection of 1 mg/kg at 10 min intervals, 60 min, 1 mg/kg): 20 ng/mL
concentration at 5 min ([2]; female, 1 mg/kg, 8-times injection of 1 mg/kg at 10 min intervals, 5 min): 140 ng/mL
concentration at 10 min ([2]; female, 1 mg/kg, 8-times injection of 1 mg/kg at 10 min intervals, 10 min): 120 ng/mL
concentration at 30 min ([2]; female, 1 mg/kg, 8-times injection of 1 mg/kg at 10 min intervals, 30 min): 40 ng/mL
concentration at 60 min ([2]; female, 1 mg/kg, 8-times injection of 1 mg/kg at 10 min intervals, 60 min): 10 ng/mL
plasma concentration ([2]; male, 8-times injection of 1 mg/kg at 10 min intervals, 60 min, 1 mg/kg): 20 ng/mL
concentration at 5 min ([2]; male, 1 mg/kg, 8-times injection of 1 mg/kg at 10 min intervals, 5 min): 430 ng/mL
concentration at 60 min ([2]; male, 1 mg/kg, 8-times injection of 1 mg/kg at 10 min intervals, 60 min): 10 ng/mL
Cpd1 concentration (sheet Fig S5b) ([2]; time 5, dose head 3): 1.2 and 1.12 and 0.98
Cpd1 concentration (sheet Fig S5b) ([2]; time 5, dose head 10): 4.45 and 3.8 and 3.72
Cpd1 concentration (sheet Fig S5a) ([2]; time 10, dose head 3): 0.44 and 0.75 and 0.51
Cpd1 concentration (sheet Fig S5b) ([2]; time 10, dose head 3): 0.71 and 0.66 and 0.76
Cpd1 concentration (sheet Fig S5a) ([2]; time 10, dose head 10): 1.73 and 2.28 and 1.66
Cpd1 concentration (sheet Fig S5b) ([2]; time 10, dose head 10): 3.08 and 2.95 and 3.2
Cpd1 concentration (sheet Fig S5a) ([2]; time 30, dose head 3): 0.11 and 0.15 and 0.12
Cpd1 concentration (sheet Fig S5b) ([2]; time 30, dose head 3): 0.14 and 0.19
Cpd1 concentration (sheet Fig S5b) ([2]; time 30, dose head 10): 0.39 and 0.45 and 0.41
Cpd1 concentration (sheet Fig S5b) ([2]; time 60, dose head 3): 0.03 and 0.02
Cpd1 concentration (sheet Fig S5a) ([2]; time 60, dose head 10): 0.05 and 0.06 and 0.04
Cpd1 concentration (sheet Fig S5b) ([2]; time 60, dose head 10): 0.04 and 0.05 and 0.06
grip force (sheet Fig S6b) (WT mice; 10 min after Cpd1): 10.7 and 8.11 and 9.35 and 11.39
grip force (sheet Fig S6b) (WT mice; 60 min after Cpd1): 11.25 and 11.53 and 12.05 and 13.94
grip force (sheet Fig S6b) (WT mice; Pre (before administration), Cpd1 group): 12.3 and 12.63 and 13.75 and 13.44
reduction of muscle strength (WT mice; WT mice, 10 min after 10 mg/kg): 15%
recovery of muscle strength deficit (WT mice; WT mice, 60 min after 10 mg/kg): almost completely recovered
grip force normalized by body weight (WT mice; female WT, 10 min): 6.55 g/g BW and 8.77 g/g BW and 8.32 g/g BW
grip force normalized by body weight (WT mice; female WT, 30 min): 6.59 g/g BW and 8.18 g/g BW and 9 g/g BW
grip force normalized by body weight (WT mice; female WT, 60 min): 8.64 g/g BW and 8.82 g/g BW and 9.45 g/g BW
grip force normalized by body weight (WT mice; female WT, 120 min): 10.05 g/g BW and 9.64 g/g BW and 12.23 g/g BW
grip force normalized by body weight (WT mice; female WT, Pre): 9.86 g/g BW and 10.18 g/g BW and 11.36 g/g BW
grip force normalized by body weight (WT mice; male WT, 10 min): 6.56 g/g BW and 4.67 g/g BW and 5.04 g/g BW
grip force normalized by body weight (WT mice; male WT, 30 min): 7.19 g/g BW and 7.63 g/g BW and 7.37 g/g BW
grip force normalized by body weight (WT mice; male WT, 60 min): 8.81 g/g BW and 9.89 g/g BW and 10.81 g/g BW
grip force normalized by body weight (WT mice; male WT, 120 min): 9.48 g/g BW and 8.74 g/g BW and 9.44 g/g BW
grip force normalized by body weight (WT mice; male WT, Pre): 9.33 g/g BW and 9.22 g/g BW and 8.63 g/g BW
remaining rate (residual Cpd1, 0 min = 100%) ([3]; 10 min): 23% and 26% and 28% and 19% and 18%
remaining rate (residual Cpd1, 0 min = 100%) ([3]; 60 min): 3% and 2% and 4%
